These results are taken from ChEMBL document CHEMBL5113443, “Design, synthesis and properties of peptide inhibitors based on BRCA1856-871” (Bioorg Med Chem Lett, 2022).

Where a SMILES comes first, the peptide text is derived from it. The star is where a group is joined. Nicotinoyl(6-CF3) = O=C(c1ccc(C(F)(F)F)nc1)*; X1 = O=C(c1cncc(C(F)(F)F)c1)*; X5 = O=C(c1ccc[n+]([O-])c1)*; Nicotinoyl = O=C(c1cccnc1)*; X2 = O=C(c1cccnc1C(F)(F)F)*; X3 = O=C(c1cccnc1Br)*; X4 = Cc1ccncc1C(=O)*; X6 = O=C(c1cccnc1S)*

For data set [1], the target named is T1, DNA repair protein RAD51 homolog 1 (Homo sapiens) (UniProt Q06609).
T1 sequence (whole entry): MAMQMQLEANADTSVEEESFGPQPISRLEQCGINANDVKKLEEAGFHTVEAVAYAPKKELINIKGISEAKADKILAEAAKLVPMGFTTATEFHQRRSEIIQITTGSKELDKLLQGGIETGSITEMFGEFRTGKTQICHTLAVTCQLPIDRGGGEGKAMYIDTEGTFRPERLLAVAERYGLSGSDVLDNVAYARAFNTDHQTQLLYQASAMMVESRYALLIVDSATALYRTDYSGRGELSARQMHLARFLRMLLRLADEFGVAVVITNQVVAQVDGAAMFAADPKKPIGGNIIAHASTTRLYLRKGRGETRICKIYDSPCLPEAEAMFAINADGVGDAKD
Briefly: Binding affinity to RAD51 (158 to 180 residues) (unknown origin) assessed as alpha-helical content at 15 uM by circular dichroism spectroscopy (reference value: 26.9%).

Data set [2] deals with T1, DNA repair protein RAD51 homolog 1 (Homo sapiens). Kind of data set: Binding affinity to RAD51 (158 to 180 residues) (unknown origin) assessed as quenching rate constant by fluorescence spectroscopy.
The target is the same in data set [3]. Briefly: Binding affinity to RAD51 (158 to 180 residues) (unknown origin) assessed as binding constant by fluorescence spectroscopy.
Data set [4] shares this target. Briefly: Binding affinity to RAD51 (158 to 180 residues) (unknown origin) assessed as reduction in fluorescence intensity by fluorescence spectroscopy. The following applies: dose 6-30 µM, DDE = dose-dependent effect.
For data set [5] the target is unchanged. Briefly: Binding affinity to RAD51 (158 to 180 residues) (unknown origin) assessed as beta-sheet content at 15 uM by circular dichroism spectroscopy (reference value: 17.7%). Background: Circular dichroism is widely used to follow secondary structure.
For data set [6] the target is unchanged. Briefly: Binding affinity to RAD51 (158 to 180 residues) (unknown origin) assessed as beta-turn content at 15 uM by circular dichroism spectroscopy (reference value: 16.2%).
Data set [7] shares this target. Briefly: Binding affinity to RAD51 (158 to 180 residues) (unknown origin) assessed as random coil content at 15 uM by circular dichroism spectroscopy (reference value: 39.2%).
Data set [8] concerns HEK293. Kind of data set: Cytotoxicity against HEK293 cells assessed as reduction in cell viability at 200 uM. It is filed as toxicity, cell-based. The following applies: human, hek293, 200 µM.
The test system of data set [9] is MCF7. Kind of data set: Cytotoxicity against human MCF7 cells assessed as cell viability at 100 uM relative to control. It is filed as functional. The following applies: read-out: Activity.

As for `CC(C)C[C@H](NC(=O)[C@@H](N)Cc1ccc(O)cc1)C(=O)N[C@@H](CCC(N)=O)C(=O)N[C@@H](CC(N)=O)C(=O)N[C@H](C(=O)N[C@@H](Cc1ccccc1)C(=O)N[C@@H](CCCCN)C(=O)N[C@H](C(=O)N[C@@H](CO)C(=O)N[C@@H](CCCCN)C(=O)N[C@@H](CCCNC(=N)N)C(=O)N[C@@H](CCC(N)=O)C(=O)N[C@@H](CO)C(=O)N[C@@H](Cc1ccccc1)C(=O)N[C@@H](C)C(=O)N1CCC[C@H]1C(=O)O)C(C)C)[C@@H](C)O` (H-YLQNTFKVSKRQSFAP-OH), the Activity in [1] was 37.1%; in [4] it was “Dde”; in data set [5] it was 18.5%; in data set [6], 26.4%; in data set [7], 18%; in data set [8], “Non-Toxic”. In data set [2], the Kq is 1.13 10^12/M. Also, the Binding constant in data set [3] is 0.33 10^4/M. In addition, the viability at 100 µM in data set [9] worked out at 90.6%.
On to `CC(C)C[C@H](NC(=O)[C@H](Cc1ccc(O)cc1)NC(=O)c1cccnc1)C(=O)N[C@@H](CCC(N)=O)C(=O)N[C@@H](CC(N)=O)C(=O)N[C@H](C(=O)N[C@@H](Cc1ccccc1)C(=O)N[C@@H](CCCCN)C(=O)N[C@H](C(=O)N[C@@H](CO)C(=O)N[C@@H](CCCCN)C(=O)N[C@@H](CCCNC(=N)N)C(=O)N[C@@H](CCC(N)=O)C(=O)N[C@@H](CO)C(=O)N[C@@H](Cc1ccccc1)C(=O)N[C@@H](C)C(=O)N1CCC[C@H]1C(N)=O)C(C)C)[C@@H](C)O` (Nicotinoyl-YLQNTFKVSKRQSFAP-NH2), for which the Activity in [1] is 43.4%; in [5] it was 13.9%; in data set [6] it was 20.1%; in data set [7], 22.6%; in [8], “Non-Toxic”. In addition, in data set [2], the Kq is 0.96 10^12/M. The Binding constant in [3] is 1.26 10^4/M. Moreover, the viability at 100 µM in [9] was determined as 80.9%.
Regarding `CC(C)C[C@H](NC(=O)[C@H](Cc1ccc(O)cc1)NC(=O)c1cncc(C(F)(F)F)c1)C(=O)N[C@@H](CCC(N)=O)C(=O)N[C@@H](CC(N)=O)C(=O)N[C@H](C(=O)N[C@@H](Cc1ccccc1)C(=O)N[C@@H](CCCCN)C(=O)N[C@H](C(=O)N[C@@H](CO)C(=O)N[C@@H](CCCCN)C(=O)N[C@@H](CCCNC(=N)N)C(=O)N[C@@H](CCC(N)=O)C(=O)N[C@@H](CO)C(=O)N[C@@H](Cc1ccccc1)C(=O)N[C@@H](C)C(=O)N1CCC[C@H]1C(N)=O)C(C)C)[C@@H](C)O` (X1-YLQNTFKVSKRQSFAP-NH2), the Activity in data set [1] is 46.7%; in [5], 13.4%; in data set [6], 16.5%; in data set [7], 23.4%; in [8] it was “Non-Toxic”. The Kq in data set [2] was 1.32 10^12/M. For the same compound, in data set [3], the Binding constant was 1.56 10^4/M. Further, the viability at 100 µM in [9] came to 71%.
For the compound `CC(C)C[C@H](NC(=O)[C@H](Cc1ccc(O)cc1)NC(=O)c1cccnc1C(F)(F)F)C(=O)N[C@@H](CCC(N)=O)C(=O)N[C@@H](CC(N)=O)C(=O)N[C@H](C(=O)N[C@@H](Cc1ccccc1)C(=O)N[C@@H](CCCCN)C(=O)N[C@H](C(=O)N[C@@H](CO)C(=O)N[C@@H](CCCCN)C(=O)N[C@@H](CCCNC(=N)N)C(=O)N[C@@H](CCC(N)=O)C(=O)N[C@@H](CO)C(=O)N[C@@H](Cc1ccccc1)C(=O)N[C@@H](C)C(=O)N1CCC[C@H]1C(N)=O)C(C)C)[C@@H](C)O` (X2-YLQNTFKVSKRQSFAP-NH2), the Activity is 51.3% in data set [1]; 26.3% in [5]; 11.6% in data set [6]; 10.8% in [7]; “Non-Toxic” in data set [8]. Moreover, the Kq in data set [2] was 0.61 10^12/M. Further, in data set [3], the Binding constant is 4.07 10^4/M. Besides, in data set [9], the viability at 100 µM turned out to be 81.5%.
For the compound `CC(C)C[C@H](NC(=O)[C@H](Cc1ccc(O)cc1)NC(=O)c1cccnc1Br)C(=O)N[C@@H](CCC(N)=O)C(=O)N[C@@H](CC(N)=O)C(=O)N[C@H](C(=O)N[C@@H](Cc1ccccc1)C(=O)N[C@@H](CCCCN)C(=O)N[C@H](C(=O)N[C@@H](CO)C(=O)N[C@@H](CCCCN)C(=O)N[C@@H](CCCNC(=N)N)C(=O)N[C@@H](CCC(N)=O)C(=O)N[C@@H](CO)C(=O)N[C@@H](Cc1ccccc1)C(=O)N[C@@H](C)C(=O)N1CCC[C@H]1C(N)=O)C(C)C)[C@@H](C)O` (X3-YLQNTFKVSKRQSFAP-NH2), the Activity stood at 37.7% in data set [1], 13.1% in data set [5], 21.6% in data set [6] and 27.6% in data set [7]. Also, in data set [2], the Kq is 1.7 10^12/M. Moreover, in data set [3], the Binding constant was 0.18 10^4/M.
For the compound `Cc1ccncc1C(=O)N[C@@H](Cc1ccc(O)cc1)C(=O)N[C@@H](CC(C)C)C(=O)N[C@@H](CCC(N)=O)C(=O)N[C@@H](CC(N)=O)C(=O)N[C@H](C(=O)N[C@@H](Cc1ccccc1)C(=O)N[C@@H](CCCCN)C(=O)N[C@H](C(=O)N[C@@H](CO)C(=O)N[C@@H](CCCCN)C(=O)N[C@@H](CCCNC(=N)N)C(=O)N[C@@H](CCC(N)=O)C(=O)N[C@@H](CO)C(=O)N[C@@H](Cc1ccccc1)C(=O)N[C@@H](C)C(=O)N1CCC[C@H]1C(N)=O)C(C)C)[C@@H](C)O` (X4-YLQNTFKVSKRQSFAP-NH2), the Activity came out at 37.9% in data set [1], 11.3% in [5], 18.1% in data set [6] and 32.7% in data set [7]. The Kq in data set [2] was 1.77 10^12/M. Besides, in data set [3], the Binding constant was 0.76 10^4/M.
In the case of `CC(C)C[C@H](NC(=O)[C@H](Cc1ccc(O)cc1)NC(=O)c1ccc[n+]([O-])c1)C(=O)N[C@@H](CCC(N)=O)C(=O)N[C@@H](CC(N)=O)C(=O)N[C@H](C(=O)N[C@@H](Cc1ccccc1)C(=O)N[C@@H](CCCCN)C(=O)N[C@H](C(=O)N[C@@H](CO)C(=O)N[C@@H](CCCCN)C(=O)N[C@@H](CCCNC(=N)N)C(=O)N[C@@H](CCC(N)=O)C(=O)N[C@@H](CO)C(=O)N[C@@H](Cc1ccccc1)C(=O)N[C@@H](C)C(=O)N1CCC[C@H]1C(N)=O)C(C)C)[C@@H](C)O` (X5-YLQNTFKVSKRQSFAP-NH2), the Activity in data set [1] was determined as 40.6%; in [5], 13.2%; in data set [6] it was 14%; in data set [7], 32.2%. In data set [2], the Kq was 1.34 10^12/M. The Binding constant in data set [3] is 0.89 10^4/M.
`CC(C)C[C@H](NC(=O)[C@H](Cc1ccc(O)cc1)NC(=O)c1cccnc1S)C(=O)N[C@@H](CCC(N)=O)C(=O)N[C@@H](CC(N)=O)C(=O)N[C@H](C(=O)N[C@@H](Cc1ccccc1)C(=O)N[C@@H](CCCCN)C(=O)N[C@H](C(=O)N[C@@H](CO)C(=O)N[C@@H](CCCCN)C(=O)N[C@@H](CCCNC(=N)N)C(=O)N[C@@H](CCC(N)=O)C(=O)N[C@@H](CO)C(=O)N[C@@H](Cc1ccccc1)C(=O)N[C@@H](C)C(=O)N1CCC[C@H]1C(N)=O)C(C)C)[C@@H](C)O` (X6-YLQNTFKVSKRQSFAP-NH2): the Activity is 36.2% in data set [1], 10.8% in data set [5], 28.8% in [6] and 24.2% in [7]. Also, the Kq in data set [2] is 5.85 10^12/M. Also, the Binding constant in [3] was 0.72 10^4/M.
On to `CC(C)C[C@H](NC(=O)[C@H](Cc1ccc(O)cc1)NC(=O)c1ccc(C(F)(F)F)nc1)C(=O)N[C@@H](CCC(N)=O)C(=O)N[C@@H](CC(N)=O)C(=O)N[C@H](C(=O)N[C@@H](Cc1ccccc1)C(=O)N[C@@H](CCCCN)C(=O)N[C@H](C(=O)N[C@@H](CO)C(=O)N[C@@H](CCCCN)C(=O)N[C@@H](CCCNC(=N)N)C(=O)N[C@@H](CCC(N)=O)C(=O)N[C@@H](CO)C(=O)N[C@@H](Cc1ccccc1)C(=O)N[C@@H](C)C(=O)N1CCC[C@H]1C(N)=O)C(C)C)[C@@H](C)O` ({Nicotinoyl(6-CF3)}-YLQNTFKVSKRQSFAP-NH2), for which the Activity in [1] is 48.3%; in data set [5] it was 11.2%; in data set [6], 18.4%; in data set [7], 22.1%; in data set [8], “Non-Toxic”. In addition, the Kq in [2] was 1.24 10^12/M. In addition, the Binding constant in data set [3] was 1.97 10^4/M. For the same compound, the viability at 100 µM in [9] is 79.1%.
